The values that follow come from patent publication US10342782B2, “Positive allosteric modulators of the muscarinic acetylcholine receptor M4” (Vanderbilt University, priority 2016, dated 2019).

In the assay the target is T1, Human M4 (Homo sapiens, UniProt P08173).
T1 sequence (P08173 1-479): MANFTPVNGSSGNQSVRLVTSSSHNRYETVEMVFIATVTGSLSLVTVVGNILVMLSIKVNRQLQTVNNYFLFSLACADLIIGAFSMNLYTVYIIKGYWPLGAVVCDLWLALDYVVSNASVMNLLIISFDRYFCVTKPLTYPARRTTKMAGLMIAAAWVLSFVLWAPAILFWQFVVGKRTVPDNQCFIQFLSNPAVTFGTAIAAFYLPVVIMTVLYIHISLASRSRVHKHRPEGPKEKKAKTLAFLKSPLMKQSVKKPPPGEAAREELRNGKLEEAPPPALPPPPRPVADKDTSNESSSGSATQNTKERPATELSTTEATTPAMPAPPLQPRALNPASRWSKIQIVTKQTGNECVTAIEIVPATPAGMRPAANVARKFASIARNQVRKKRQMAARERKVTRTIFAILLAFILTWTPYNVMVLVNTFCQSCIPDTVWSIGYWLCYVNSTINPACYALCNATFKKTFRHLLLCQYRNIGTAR
The assay is described as follows: cell-based. The settings on record: for Emax: CHO-K1.

Description: Human M4 cDNA, along with the chimeric G protein Gqi5, were transfected into Chinese hamster ovary (CHO-K1) cells purchased from the American Type Culture Collection using Lipofectamine2000. M4/Gqi5/CHO cells were grown in Ham's F-12 medium containing 10% heat-inactivated fetal bovine serum (FBS), 20 mM HEPES, 500 μg/mL G418 sulfate, and 200 μg/mL Hygromycin B.
For high throughput measurement of agonist-evoked increases in intracellular calcium, CHO-K1 cells stably expressing muscarinic receptors were plated in growth medium lacking G418 and hygromycin at 15,000 cells/20 μL/well in Greiner 384-well black-walled, tissue culture (TC)-treated, clear-bottom plates (VWR). Cells were incubated overnight at 37° C. and 5% CO2. […] Test compound CRCs were then transferred to daughter plates (240 nL) using the Echo acoustic plate reformatter (Labcyte, Sunnyvale, Calif.) and then diluted into assay buffer (40 μL) to a 2× stock using a Thermo Fisher Combi (Thermo Fisher Scientific, Waltham, Mass.).
Calcium flux was measured using the Functional Drug Screening System (FDSS) 6000 or 7000 (Hamamatsu Corporation, Tokyo, Japan) as an increase in the fluorescent static ratio. Compounds were applied to cells (20 μL, 2×) using the automated system of the FDSS at 2-4 s into the protocol and the data were collected at 1 Hz. […] Agonist activity was analyzed as a concentration-dependent increase in calcium mobilization upon compound addition. Positive allosteric modulator activity was analyzed as a concentration-dependent increase in the EC20 acetylcholine response. Antagonist activity was analyzed as a concentration-dependent decrease in the EC80 acetylcholine response. Concentration-response curves were generated using a four-parameter logistical equation in XLFit curve fitting software (IDBS, Bridgewater, N.J.) for Excel (Microsoft, Redmond, Wash.) or Prism (GraphPad Software, Inc., San Diego, Calif.).

On to `Cc1nc2cc(C)c3c(N)c(C(=O)NCc4ccc(N5CCN(C)CC5)cc4)sc3n2n1` [Compound 8, 6-amino-2,5-dimethyl-N-(4-(4-methylpiperazin-1-yl)benzyl)thieno[3,2-e][1,2,4]triazolo[1,5-a]pyridine-7-carboxamide], for which it took 217 nM to reach a half-maximal effect (EC50) and the Emax – broadly, the greatest response seen or fitted, relative to the assay's reference – was 86%.
On the same counts, the results for `Cc1nc2cc(C)c3c(N)c(C(=O)NC4CN(c5ncc(C6CC6)cc5C)C4)sc3n2n1` [Compound 9, 6-amino-N-(1-(5-cyclopropyl-3-methylpyridin-2-yl)azetidin-3-yl)-2,5-dimethylthieno[3,2-e][1,2,4]triazolo[1,5-a]pyridine-7-carboxamide] are 863 nM and 79%.
In the case of `Cc1nc2cc(C)c3c(N)c(C(=O)N[C@H]4CCN(c5ccc(F)cn5)C4)sc3n2n1` [Compound 12, (S)-6-amino-N-(1-(5-fluoropyridin-2-yl)pyrrolidin-3-yl)-2,5-dimethylthieno[3,2-e][1,2,4]triazolo[1,5-a]pyridine-7-carboxamide], the EC50 – broadly, the concentration that produces a half-maximal response – was 596 nM and the Emax is 66%.
In turn, `Cc1nc2cc(C)c3c(N)c(C(=O)N[C@@H]4CCN(c5ccc(F)cn5)C4)sc3n2n1` [Compound 15, (R)-6-amino-N-(1-(5-fluoropyridin-2-yl)pyrrolidin-3-yl)-2,5-dimethylthieno[3,2-e][1,2,4]triazolo[1,5-a]pyridine-7-carboxamide] had an EC50 of 1200 nM and an Emax of 43%.
